Patent US9987307B2, “Tolerogenic dendritic cells, methods of producing the same, and uses thereof” (SOTIO A.S., priority 2014, dated 2018)
“Also recorded” adds a separate entry of the source.

Experiments:
glycolysis = assay: Metabolic quantification: lactate in DC supernatants; type: cell-based, human; details: pretreatment before restimulation, 24 h
Procedure: lactate, glucose and lactate dehydrogenase measurements: Concentrations of lactate and glucose in DC culture supernatants were measured with Glycolysis Cell-based assay kit (Cayman Chemicals) and Glucose colorimetric assay kit (BioVision), respectively. When indicated, glycolysis was suppressed by treatment with 10 mM 2-deoxyglucose (Sigma) 1 h prior exposition of DCs cultured in Cell Gro into RPMI, LPS, CC, polyI:C or CD40L. LDH activity of the DCs extracts was measured with Lactate dehydrogenase activity assay kit (Sigma).

tDCs [1] = assay: IL-10 and IL-12 production of restimulated tDCs in the presence of inhibitors (ELISA); type: cell-based, human; details: restimulation with CC, LPS, polyI:C, CD40L, 24 h
Procedure: (§1) To induce maturation, DC were treated with vaccine grade monophosphoryl lipid A (MPLA) (2 μg/ml, Cayla-InvivoGen) on day 6 or on day 7. On day 7 or on day 8, DC were harvested, washed and functional assays were performed. Control DC (cDC) were cultured without tolerising factors. For restimulation assays, tolDC and cDC were extensively washed and recultured in complete RPMI 1640 medium (Gibco) in the absence of tolerising factors for 24-72 h, with or without lipopolysaccharide (LPS, 1 μg/ml, Sigma-Aldrich), poly I:C (25 μg/ml, Cayla-InvivoGen), CD40L (1000 ng/ml, Enzo) or a mixture of pro-inflammatory cytokines containing IL-1β (10 ng/ml), TNFα (10 ng/ml), IL-6 (10 ng/ml) and IFNγ (100 ng/ml) (all from R&D systems). Supernatant and cells were collected for further analysis. Signaling inhibitors were added 1 h before the start of experiments under the specified stimulation conditions. SB203580 (p38 MAPK inhibitor at 10 μM), SP600125 (JNK/SAPK inhibitor at 20 μM), PD98059 (ERK1/2 inhibitor at 20 μM), Bay 11-7082 (NF-κB inhibitor at 10 μM), Stattic (STAT3 inhibitor at 5 μM) and rapamycin (mTOR inhibitor at 100 nM) were obtained from Calbiochem and dissolved in DMSO.
(§2) Cell supernatants were harvested after 24 hours of DC stimulation and frozen at −80° C. until analysis. IL-10, IL-12p70, IL-6 and TNFα concentrations were determined in cell culture supernatants of activated DCs using Luminex assay (MILLIPLEX™ Human Cytokine/Chemokine Kit, Merck Millipore) and ELISA assay (DuoSet ELISA Kit, R&D systems) according to manufacturer's instructions.
(§3) Immature DCs were obtained from buffy coats of healthy donors as previously described [Palova-Jelinkova L, Rozkova D, Pecharova B, Bartova J, Sediva A, Tlaskalova-Hogenova H, Spisek R, Tuckova L: Gliadin fragments induce phenotypic and functional maturation of human dendritic cells. J Immunol 2005; 175:7038-7045]. […] Medium and cytokines were replenished on day 3. On day 6, DCs were harvested and seeded in 96-well plates (Nunc) at 1×10^6 cells/ml. On day 7, immature DCs were activated with vacci grade MPLA (2 μg/ml, Cayla-InvivoGen) for 24 hrs. To induce tDCs, DCs were treated with Dex on day 3 (1 μM, Medochemie) and Dex and VitD2-paricalcitol (1.5 ng/ml, Zemplar, Abbott Laboratories) on day 6. Control DCs (cDCs) were cultured without tolerising factors. For restimulation assays, tDCs and cDCs were washed and recultured in complete RPMI medium (Gibco) containing 5% human AB serum (Invitrogen) in the absence of tolerising factors for 24 h, with or without LPS (1 μg/ml, Sigma-Aldrich), polyI:C (25 μg/ml, Cayla-InvivoGen), megaCD40L™ (1000 ng/ml, Enzo Life Sciences) or mixture of pro-inflammatory cytokines containing IL-1β, TNF-α, IL-6 (all 10 ng/ml) and IFN-γ (100 ng/ml) (all from R&D systems). Signaling inhibitors were added 1 h before the start of experiments under the specified stimulation conditions. SB203580 (p38 MAPK inhibitor at 10 μM), SP600125 (JNK/SAPK inhibitor at 20 μM), PD98059 (ERK1/2 inhibitor at 20 μM), Bay 11-7082 (NF-κB inhibitor at 10 μM), Stattic (STAT3 inhibitor at 5 μM) and rapamycin (mTOR inhibitor at 100 nM) were obtained from Calbiochem and dissolved in dimethyl sulfoxide. Supernatants and cells were collected for further analysis.
(§4) Cell supernatants were harvested after 24 h of DC stimulation and frozen at −80° C. until analysis. IL-10, IL-12p70, TNF-α and TGF-β concentrations were determined using Luminex assay (MILLIPLEX™ Human Cytokine/Chemokine Kit, Merck Millipore) and ELISA assay (DuoSet ELISA Kit, R&D systems) according to the manufacturer's instructions. Cell supernatants were acidified before measuring TGF-β levels according to the manufacturer's instructions.
lactate, glucose and lactate dehydrogenase measurements: Concentrations of lactate and glucose in DC culture supernatants were measured with Glycolysis Cell-based assay kit (Cayman Chemicals) and Glucose colorimetric assay kit (BioVision), respectively. […]

tDCs [2] = assay: ILT-3, PD-L1 and CD86 expression on restimulated tDCs in the presence of inhibitors (flow cytometry); type: cell-based, human; details: for CD86 expression in tDCs in the presence of inhibitor / ILT-3 and PD-L1 expression in tDCs in the presence of inhibitor: restimulation 24 h
Procedure: as §1
Cells were stained with fluorochrome-conjugated mAbs for 30 min at 4° C. in PBS, washed and analysed on LSRFortessa cell analyzer (BD Biosciences). Appropriate isotype controls were included. Data were analyzed using FlowJo software (Tree Star). DCs were gated according to the FSC, SSC and CD11c+ parameters for analysis. Dead cells were excluded from the analysis based on DAPI staining. For intracellular cytokine staining, T cells were stimulated with phorbol-12-myristate-13-acetate (PMA) (50 ng/ml, Sigma-Aldrich) plus ionomycin (1 μg/ml, Sigma-Aldrich) for 4-16 hours in the presence of Brefeldin A (5 μg/ml, BioLegend) before cell analysing. After stimulation, cells were washed, incubated in Fixation/Permeabilization Buffer (eBiosciences) for 30 min at 4° C., then washed in Permeabilization Buffer (eBiosciences) and stained with appropriate mAb for 30 min at 4° C.
as §3
Cells (2×10^5/well) were stained with fluorochrome-conjugated mAbs for 30 min at 4° C. in PBS, washed and analysed on LSR Fortessa cell analyzer (BD Biosciences). Appropriate isotype controls were included. Data were analyzed using FlowJo software (Tree Star). […]

allogeneic T cells = assay: Allostimulatory assay (primary MLR, CFSE dilution); type: cell-based, human; details: compared to tDCs without inhibitor; day 6
Procedure: For primary MLR assays, allogeneic T cells (2×10^5) labelled with 5 μM carboxyfluorescein succinimidyl ester (CFSE, Invitrogen) were incubated with tolDC or cDC (2×10^4) in 96-well, round-bottom plates. T cell proliferation was determined by the sequential dilution of CFSE fluorescence of T cells, as detected by flow cytometry on day 6.
T cells were obtained from PBMC non-adherent fraction. tDCs or cDCs (2×104) were cultured with allogeneic T cells (2×105) in complete RPMI medium (Gibco) containing 5% human AB serum (Invitrogen). IL-2 (20 U/ml, PeproTech) was added on day 2, 5 and 7. For primary mixed lymphocyte reaction (MLR) assays, allogeneic T cells (2×105) labelled with 5 μM carboxyfluorescein succinimidyl ester (CFSE) (Invitrogen) were incubated with tDCs or cDCs (2×104). T cell proliferation was determined by the sequential dilution of CFSE fluorescence of T cells, as detected by flow cytometry on day 6. For detection of IFN-γ, IL-10 and IL-17A production by T cells, 2×10^4 tDCs or cDCs were cultured with 2×10^5 allogeneic T cells. Cytokine production was determined by intracellular staining by flow cytometry on day 6 (IFN-γ) and day 9 (IL-10). IL-17A production from cell culture supernatants was analyzed by ELISA on day 6.

cDCs = assay: IL-10 and IL-12 production of restimulated cDCs in the presence of inhibitors (ELISA); type: cell-based, human; details: for IL-12 production in cDCs in the presence of inhibitor: after LPS and CC triggering
Procedure: as §1, §2
Immature DCs were obtained from buffy coats of healthy donors as previously described [Palova-Jelinkova L, Rozkova D, Pecharova B, Bartova J, Sediva A, Tlaskalova-Hogenova H, Spisek R, Tuckova L: Gliadin fragments induce phenotypic and functional maturation of human dendritic cells. J Immunol 2005; 175:7038-7045]. […] Medium and cytokines were replenished on day 3. On day 6, DCs were harvested and seeded in 96-well plates (Nunc) at 1×10^6 cells/ml. On day 7, immature DCs were activated with vacci grade MPLA (2 μg/ml, Cayla-InvivoGen) for 24 hrs. To induce tDCs, DCs were treated with Dex on day 3 (1 μM, Medochemie) and Dex and VitD2-paricalcitol (1.5 ng/ml, Zemplar, Abbott Laboratories) on day 6. Control DCs (cDCs) were cultured without tolerising factors. […]
as §4, with “Cell supernatants were acidified before measuring TGF-β levels according to the manufacturer's instructions.” left out

For O=CC[C@@H](O)[C@H](O)[C@H](O)CO [2-DG, 2-deoxyglucose], which “lactate generation in Dex/VitD tDCs in the presence of inhibitor” value (glycolysis) is on record?
Its value is “significantly prevented lactate generation”.

And the “IL-10 production in tDCs in the presence of inhibitor” value (tDCs [1])?
Its value is “markedly decreased IL-10 production”.

What about the “IL-12 production in tDCs in the presence of inhibitor” value (tDCs [1]) of the same molecule?
Its value is “remained unaffected”.

What about the “CD86 expression in tDCs in the presence of inhibitor” value (tDCs [2]) of the same molecule?
The value was “remained unaffected”.

And the “ILT-3 and PD-L1 expression in tDCs in the presence of inhibitor” value (“ILT-3 and PD-L1 expression … of inhibitor” below) (tDCs [2])?
The value was “failed to up-regulate ILT-3 and PD-L1 molecules”.

And the “ability of inhibitor-pretreated tDCs to stimulate allogeneic T cell proliferation” value (allogeneic T cells)?
The value was “increased partially”.

For Cc1ccc(S(=O)(=O)/C=C/C#N)cc1 [Bay 11-7082], which “IL-10 production in tDCs in the presence of inhibitor” value (tDCs [1]) is on record?
Its value is “significantly dependent; also recorded: abrogated IL-10 production”.

And the “IL-12 production in tDCs in the presence of inhibitor” value (tDCs [1])?
Its value is “did not changed IL-12 production; also recorded: did not affect IL-12 production”.

And the “IL-12 production in cDCs in the presence of inhibitor” value (cDCs)?
Its value is “markedly down-regulated IL-12 production”.

C[C@@H]1C[C@H]2[C@@H]3CCC4=CC(=O)C=C[C@]4(C)[C@@]3(F)[C@@H](O)C[C@]2(C)[C@@]1(O)C(=O)CO [Dex, Dexamethasone] was tested. Which “viability of DCs” value (DCs) did it give?
Its value is “did not affect the viability of DCs”.

What does the source list for COc1cccc(-c2cc(=O)c3ccccc3o2)c1N [PD98059]?
IL-10 production in tDCs in the presence of inhibitor (tDCs [1]): significantly dependent; PD-L1 expression in the presence of inhibitor (tDCs [2]; after LPS stimulation): down-regulated PD-L1 expression; CD86 expression in tDCs in the presence of inhibitor (tDCs [2]): significantly up-regulated CD86 expression; ability of inhibitor-pretreated tDCs to stimulate allogeneic T cell proliferation (allogeneic T cells): increased the ability

C[S+]([O-])c1ccc(-c2nc(-c3ccncc3)c(-c3ccc(F)cc3)[nH]2)cc1 (centres unmarked) [SB203580] was tested. Which “IL-10 production in tDCs in the presence of inhibitor” value (tDCs [1]) did it give?
Its value is “significantly dependent”.

And the “IL-12 production in tDCs in the presence of inhibitor” value (tDCs [1])?
The value was “did not changed IL-12 production; also recorded: did not affect IL-12 production”.

What about the “ILT-3 and PD-L1 expression … of inhibitor” value (tDCs [2]) of the same molecule?
The value was “down-regulated ILT-3 and PD-L1 expression”.

What about the “IL-12 production in cDCs in the presence of inhibitor” value (cDCs) of the same molecule?
Its value is “markedly down-regulated IL-12 production”.

O=[N+]([O-])c1ccc2c(c1)S(=O)(=O)C=C2 [Stattic] was tested. Which “IL-10 production in tDCs in the presence of inhibitor” value (tDCs [1]) did it give?
Its value is “reduced IL-10 production”.

What about the “IL-12 production in tDCs in the presence of inhibitor” value (tDCs [1]) of the same molecule?
The value was “unaffected”.

What about the “CD86 expression in tDCs in the presence of inhibitor” value (tDCs [2]) of the same molecule?
Its value is “significantly increased CD86 expression”.

And the “ILT-3 and PD-L1 expression … of inhibitor” value (tDCs [2])?
The value was “markedly reduced expression”.

And the “IL-12 production in cDCs in the presence of inhibitor” value (cDCs)?
Its value is “unaffected”.

What about the “IL-10 production in cDCs in the presence of inhibitor” value (cDCs; after LPS restimulation) of the same molecule?
Its value is “down-regulated IL-10 production”.

What about the “ability of inhibitor-pretreated tDCs to stimulate allogeneic T cell proliferation” value (allogeneic T cells) of the same molecule?
The value was “partial restoration”.

How did the “viability of DCs” value (DCs) turn out when C[C@H](/C=C/[C@H](C)C(C)(C)O)[C@H]1CC[C@H]2/C(=C/C=C3C[C@@H](O)C[C@H](O)C3)CCC[C@]12C [VitD2, 19-nor-1,25-dihydroxyvitamin D2] was run?
The value was “did not affect the viability of DCs”.
